Measured values as given in ChEMBL document CHEMBL1201862, “PubChem BioAssay data set” (2004).
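Protocol summary: plate cells (96-well), add compound at 5 concentrations, incubate 48 h, interpolate endpoints linearly. GI50 is the concentration that inhibits growth by half.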 The source made the active and inactive calls. No stated cut-off is given here; in the data, active = GI50 up to about 1.1 µM and inactive = higher.

Assays:
Test in all cases: DTP human tumour cell line panel, 48 h
T47D = tested on: T47D
BT-549 = tested on: BT-549
DLD-1 = tested on: DLD-1
XF498 = tested on: XF498
M19-MEL = tested on: M19-MEL
DMS-273 = tested on: DMS-273
LXFL 529 = tested on: LXFL 529
DMS-114 = tested on: DMS-114

SMILES	GI50 (T47D)	GI50 (BT-549)	also measured
CN(C)CCNC(=O)c1ccc(NCCCN(C)CCCNc2ccc3c(=O)n(CCN(C)C)c(=O)n4c5ccccc5c(=O)c2c34)c2c(O)c3ccccc3nc12	0.165 µM (active)	0.213 µM (active)	
NC(Cc1c[nH]c2ccc([N+](=O)[O-])cc12)C(=O)O (configuration not stated)	> 100 µM (inactive)	> 100 µM (inactive)	
COc1ccc(OC)c(-c2cc(O)c3cc4c(cc3n2)OCO4)c1			GI50 (DLD-1): 3.57 µM (inactive); GI50 (XF498): 4.42 µM (inactive); GI50 (M19-MEL): 4.21 µM (inactive); GI50 (DMS-273): 4.06 µM (inactive); GI50 (LXFL 529): 6.92 µM (inactive); GI50 (DMS-114): 3.68 µM (inactive)
CC(C)c1cc(CN(C)C)c(O)c(C(C)(C)C)c1	24.7 µM (inactive)	37.5 µM (inactive)	
Cn1c(=O)c2nc(CCCCc3nc4ccccc4[nH]3)[nH]c2n(C)c1=O	> 100 µM (inactive)	> 100 µM (inactive)	
Oc1[nH]c(Nc2cccc(CC(F)(F)F)c2)nc2ncnc1-2	> 100 µM (inactive)	> 100 µM (inactive)	
CN(C)CCn1c(=O)c2ccc(NCCCN(C)CCCNc3ccc4c(=O)n(CCN(C)C)c(=O)n5c6ccc(O)cc6c(=O)c3c45)c3c(=O)c4cc(O)ccc4n(c1=O)c23	0.0624 µM (active)	0.0692 µM (active)	
C=C1C2CC3CCC2C(OC(=O)c2ccccc2C(=O)O)C13 (configuration not stated)	> 100 µM (inactive)		
O=C(Nc1ccccc1)OCCN=c1c2ccccc2ccc2ccccc12	13.1 µM (inactive)	13 µM (inactive)	
Cc1cnc2ccc(C)c([N+](=O)[O-])c2c1NCCCN(C)C			GI50 (XF498): > 100 µM (inactive); GI50 (M19-MEL): > 100 µM (inactive); GI50 (DMS-273): > 100 µM (inactive); GI50 (DMS-114): 86.5 µM (inactive)
CCOC(=O)c1sc2nc(SC)nc3c2c1N=CN3c1ccccc1Cl	58.5 µM (inactive)	26.7 µM (inactive)	
C[C@@H](NC(=O)[C@@H]1C[C@]1(C)COC(=O)c1cc([N+](=O)[O-])cc([N+](=O)[O-])c1)c1cccc2ccccc12	65.3 µM (inactive)	> 100 µM (inactive)	
COC(C[C@H]1CCCC[C@]1(O)/C(=C\CO[Si](C(C)C)(C(C)C)C(C)C)Sc1ccccc1)OC	12.6 µM (inactive)		
Cc1[nH]c(-c2ccccc2)c(O)c1C(=O)OC1CC(C)CCC1C(C)C (configuration not stated)	13.7 µM (inactive)	18.4 µM (inactive)	
CCSc1nc2sc(C)c(C)c2c(=O)n1-c1ccc(C(=O)O)cc1			GI50 (DLD-1): 43.2 µM (inactive); GI50 (XF498): 75.7 µM (inactive); GI50 (M19-MEL): 60 µM (inactive); GI50 (DMS-114): 76.9 µM (inactive)
O=c1c2ccccc2sc2cccc(NCCCN3CCN(CCCNc4cccc5sc6ccccc6c(=O)c45)CC3)c12	> 100 µM (inactive)		
Cc1cc(=O)n2nc(SCc3ccccc3)sc2n1	42.3 µM (inactive)	> 100 µM (inactive)	
COc1ccc(/C=C(\C#N)c2nc3ccccc3c(=O)[nH]2)cc1	20.6 µM (inactive)	15.5 µM (inactive)	
CCSc1s/c(=N/c2ccc(/N=c3\sc(C)c(SC)s3)cc2)sc1-c1ccc(C)cc1	> 100 µM (inactive)	> 100 µM (inactive)	
Cc1ccc2c(c1C)CC1(Cc3ccc(C)c(C)c3C1=O)C2=O (configuration not stated)	> 100 µM (inactive)	> 100 µM (inactive)	
CCc1cc(Cc2cc(CC)c(NC(=O)C(=O)Cc3ccccn3)c(CC)c2Cl)c(Cl)c(CC)c1NC(=O)C(=O)Cc1ccccn1			GI50 (DLD-1): > 100 µM (inactive); GI50 (XF498): > 100 µM (inactive); GI50 (M19-MEL): > 100 µM (inactive); GI50 (DMS-273): > 100 µM (inactive); GI50 (LXFL 529): 53 µM (inactive); GI50 (DMS-114): 96.8 µM (inactive)

SMILES	GI50 (T47D)	GI50 (BT-549)	also measured
Cc1cc(C)c(C(=O)O)c(N)c1O			GI50 (DLD-1): > 100 µM (inactive); GI50 (M19-MEL): > 100 µM (inactive); GI50 (DMS-273): > 100 µM (inactive); GI50 (LXFL 529): > 100 µM (inactive); GI50 (DMS-114): > 100 µM (inactive)
O=CN1CCN(C(=O)c2cc(Cl)cc(Cl)c2)C1=S	10.7 µM (inactive)	17.3 µM (inactive)	
CN(C)CN(C)c1nc(N(C)C)nc(N(C)CN(C)C)n1			GI50 (DLD-1): 42.7 µM (inactive); GI50 (XF498): 96.2 µM (inactive); GI50 (M19-MEL): 31.8 µM (inactive); GI50 (DMS-273): 17.5 µM (inactive); GI50 (LXFL 529): 30.3 µM (inactive)
CC(Oc1ccc(Cl)cc1Cl)C(=O)NN1C(=O)CC(=O)NC1=S (configuration not stated)	31.8 µM (inactive)	> 100 µM (inactive)	
CCOC(=O)c1cc(C#N)[nH]c1-c1ccsc1		34.8 µM (inactive)	
Cc1cn(CCCCOC(=O)NC(CCCNC(=N)N)C(=O)O)c(=O)[nH]c1=O (configuration not stated)	> 100 µM (inactive)	> 100 µM (inactive)	
CC(C)OC(=O)c1ccc(CCc2cc(O)c(Br)cc2O)cc1	22 µM (inactive)	16.4 µM (inactive)	
O=C(O)CSC(NC(=O)C(C(F)(F)F)C(F)(F)F)(C(F)(F)F)C(F)(F)F	> 100 µM (inactive)	> 100 µM (inactive)	
O=C1C(C(O)(C(F)(F)Cl)C(F)(F)Cl)CCC1C(O)(C(F)(F)Cl)C(F)(F)Cl (configuration not stated)	4.44 µM (inactive)	4.35 µM (inactive)	
CCOC(=O)/C(C#N)=C/c1[nH]c(C)c(C)c1C			GI50 (DLD-1): > 100 µM (inactive); GI50 (XF498): > 100 µM (inactive); GI50 (M19-MEL): > 100 µM (inactive); GI50 (DMS-273): > 100 µM (inactive); GI50 (LXFL 529): > 100 µM (inactive); GI50 (DMS-114): > 100 µM (inactive)
OC1CC2CCCN(CCc3c1[nH]c1ccccc31)C2 (configuration not stated)	> 100 µM (inactive)	38.3 µM (inactive)	
O=C(Nc1ccc2ncccc2c1)c1cc2c(cc1Cl)Sc1nccn1S2(=O)=O	14.7 µM (inactive)	15.6 µM (inactive)	
COc1ccc(NC(=O)CC(=O)NN2C(=O)/C(=C/c3ccc(N(CCC#N)CCC#N)cc3C)N=C2/C=C\c2ccccc2)cc1			GI50 (DLD-1): > 100 µM (inactive); GI50 (M19-MEL): > 100 µM (inactive); GI50 (LXFL 529): > 100 µM (inactive)
CC(C)C12Cc3c(ccc4ccccc34)OC1(C)Oc1ccc3ccccc3c1C2 (configuration not stated)			GI50 (DLD-1): > 100 µM (inactive); GI50 (XF498): > 100 µM (inactive); GI50 (DMS-273): > 100 µM (inactive); GI50 (LXFL 529): > 100 µM (inactive); GI50 (DMS-114): 25.6 µM (inactive)
Brc1cccc(/C=C/CN2CCN(CCOC(c3ccccc3)c3ccccc3)CC2)c1	3.73 µM (inactive)	16.5 µM (inactive)	
Cc1cc([N+](=O)[O-])ccc1/N=N/C(=O)NNc1ccc([N+](=O)[O-])cc1C	15.3 µM (inactive)	11.6 µM (inactive)	
COC(=O)C1=C(OC(=O)/C(=C/c2ccc(Cl)cc2Cl)c2ccc(Cl)cc2Cl)C(C(=O)OC)[C@@]2(O)[C@@H](C(=O)OC)[C@H](C)C[C@@H]1[C@@H]2C(=O)OC (some centres not stated)	> 100 µM (inactive)	> 100 µM (inactive)	
O=S(=O)(C1=CC(S(=O)(=O)c2ccccc2)COC1)c1ccccc1 (configuration not stated)			GI50 (DLD-1): > 100 µM (inactive); GI50 (XF498): > 100 µM (inactive); GI50 (M19-MEL): > 100 µM (inactive); GI50 (DMS-273): > 100 µM (inactive); GI50 (LXFL 529): > 100 µM (inactive); GI50 (DMS-114): > 100 µM (inactive)
CC(=O)OC1CCC2(C)C(CCC3C4CC=C(C5(C)OCCO5)C4(C)CCC32)C1 (configuration not stated)	22.9 µM (inactive)	20.6 µM (inactive)	
CN(C)C1(N(C)C)Oc2c(c(=O)n(C)c(=O)n2C)C(c2ccccc2Br)C1(F)F (configuration not stated)	> 100 µM (inactive)	> 100 µM (inactive)	
COc1ccc2c3c(c(C(=O)O)oc13)C(CCC(=O)O)CC2 (configuration not stated)			GI50 (DLD-1): > 100 µM (inactive); GI50 (XF498): > 100 µM (inactive); GI50 (DMS-273): > 100 µM (inactive); GI50 (LXFL 529): > 100 µM (inactive); GI50 (DMS-114): > 100 µM (inactive)

SMILES	GI50 (T47D)	GI50 (BT-549)	also measured
CS(=O)(=O)OCCCSCCSCCCOS(C)(=O)=O	> 100 µM (inactive)	> 100 µM (inactive)	
CC(=O)/C=c1\[nH]/c(=C\C=C\c2ccccc2)c(=O)n1/C=C1\C(=O)Oc2ccccc2C1=O		> 100 µM (inactive)	
CCCCCCCCCCCCCC(=O)OC1CC(=O)OC1CO (configuration not stated)			GI50 (DLD-1): 34.4 µM (inactive); GI50 (XF498): 65.3 µM (inactive); GI50 (M19-MEL): > 100 µM (inactive); GI50 (DMS-273): > 100 µM (inactive); GI50 (LXFL 529): 89.3 µM (inactive); GI50 (DMS-114): 35.7 µM (inactive)
CC(=O)O[C@H]1C(=O)[C@@]2(C)[C@H]([C@H](OC(=O)c3ccccc3)[C@]3(O)C[C@H](OC(=O)[C@H](O)[C@@H](NC(=O)c4ccccc4)c4cccc(N(C)C)c4)C(C)=C1C3(C)C)[C@]1(OC(C)=O)CO[C@@H]1C[C@@H]2O	0.401 µM (active)	0.165 µM (active)	
COc1ccc(Oc2cnn(C(Br)(Br)C(C)=O)c(=O)c2Br)cc1	18.5 µM (inactive)	17.3 µM (inactive)	
CC1(C)OCC(C2OC(=O)C(OCc3ccccc3)=C2OCc2ccccc2)O1 (configuration not stated)	28.8 µM (inactive)	35 µM (inactive)	
Cc1cccc(C)c1N1C(=O)C(=O)C(c2nc3ccccc3s2)/C(=N/c2cccc3c(=O)[nH][nH]c(=O)c23)C1=O (configuration not stated)			GI50 (DLD-1): > 100 µM (inactive); GI50 (M19-MEL): > 100 µM (inactive); GI50 (DMS-273): > 100 µM (inactive); GI50 (LXFL 529): > 100 µM (inactive)
O=C1Nc2ccc(Br)cc2/C1=N/c1ccc(Cl)cc1	16.9 µM (inactive)		
Cn1c2c(c3ccccc31)CCN1C(=O)CCC21 (configuration not stated)	> 10 µM (inactive)		
CC#CC#C/C=C1/C=CC2(CCCCO2)O1 (configuration not stated)	> 100 µM (inactive)	> 100 µM (inactive)	
Cn1c([C@H](C#N)c2ncccc2[N+](=O)[O-])nc2ccccc21		> 100 µM (inactive)	
COc1cc2c(cc1OCCCC(=O)Nc1cc(C(=O)Nc3cc(C(=O)Nc4cc(C(=O)NCCCN(C)C)n(C)n4)n(C)n3)n(C)n1)N=CC1CCCN1C2=O (configuration not stated)	56 µM (inactive)	12.4 µM (inactive)	
Cn1/c(=N\N=C(\CNCCO)[C@@H](O)[C@@H]2OC(c3ccccc3)OC[C@H]2O)sc2ccccc21 (some centres not stated)	20.1 µM (inactive)	21.1 µM (inactive)	
Cc1cn(C(=O)NC23CC4CC(CC(C4)C2)C3)c(=O)[nH]c1=O	31.3 µM (inactive)	21.8 µM (inactive)	
Cc1cc(C)nc(NC(P(=O)(O)O)P(=O)(O)O)n1		> 100 µM (inactive)	
COc1cc(/C=[N+](\[O-])c2ccccc2Cl)ccc1OC(=S)S	18.8 µM (inactive)	26.9 µM (inactive)	
CCC[C@H](C)[C@H]1NC(=O)[C@@H](NC(=O)[C@@H](CC(C)C)N(C)C(=O)C2CCCN2C(=O)[C@H](C)O)[C@@H](C)OC(=O)[C@H](CC(C)C)N(C)C(=O)[C@@H]2CCCN2C(=O)[C@H](CC(C)C)NC(=O)[C@@H](C)C(=O)[C@H](C(C)C)OC(=O)C[C@@H]1O (some centres not stated)	< 0.0025 µM (active)	< 0.0025 µM (active)	
COc1ccc(OC)c(-c2cc(=O)c3c(OC)c(OC)c(OC)c(OC)c3o2)c1	2.13 µM (inactive)	33.2 µM (inactive)	
C[C@H]1[C@H](C)CC[C@]2(C)CC[C@]3(C)C(=C[C@@H](O)[C@@H]4[C@@]5(C)[C@H](O)[C@@H](O)[C@H](O)C(C)(C)[C@@H]5CC[C@]43C)[C@H]12		> 100 µM (inactive)	
Nc1ccc(C(=O)O)cc1 [AMINOBENZOIC ACID]	> 100 µM (inactive)		
